Data: ChEMBL document CHEMBL1146190, “Azadideoxyadenosine: synthesis, enzymology, and anti-HIV activity” (Bioorg Med Chem Lett, 2006)

Experiments:
[1] = test system: Human immunodeficiency virus 1; experiment: Antiviral activity against HIV1 NL4-3; assay type: functional, organism-based; settings: Human immunodeficiency virus 1, NL4-3
[2] = test system: Human immunodeficiency virus 1; experiment: Antiviral activity against HIV1 TEKI; assay type: functional, organism-based; settings: Human immunodeficiency virus 1, TEKI
PBMC = experiment: Cytotoxicity against human PBMC; assay type: functional

| IC50 [1] [µM] | IC50 [2] [µM] | SMILES | CC50 (PBMC) [µM] |
| --- | --- | --- | --- |
| 3.11 | 3.52 | Nc1ncnc2c1ncn2[C@H]1CN[C@@H](CO)C1 | 46.6 |
| – | – | Cc1cn([C@H]2C[C@H](N=[N+]=[N-])[C@@H](CO)O2)c(=O)[nH]c1=O [ZIDOVUDINE] | > 1 |
